From patent publication US20260144770A1, “COMPOSITION FOR INHIBITING SEBUM SECRETION CONTAINING A THYMOL ESTER-BASED COMPOUND” (AMOREPACIFIC CORPORATION, priority 2024, published 2026)

System: Human sebocytes
Test: Test of sebum secretion-inhibiting effect using human sebocytes (linoleic acid-induced, Bodipy lipid staining)
Format: cell-based
Description: Human sebocytes were cultured for 24 hours in an environment of 37° C. and 5% CO2 with Sebocyte Complete Culture Media (Celprogen), and then treated with 100 μM linoleic acid and 0.1, 0.5, 1, and 2 ppm Melasolv and cultured for another 48 hours.
Thereafter, the cells were fixed with formaldehyde, and lipids were stained with 2 μM Bodipy. Fluorescence intensity was measured at a specific wavelength (Excitation/Emission: 485/528 nm) using a Fluorescent Plate Reader.

Compound | amount of sebum production (concentration dependence) (0.1, 0.5, 1, and 2 ppm Melasolv together with 100 μM linoleic acid, 48 hours (FIG. 1)) | sebum production seen in fluorescence photograph (FIG. 2) (2 ppm Melasolv, naked-eye observation of Bodipy fluorescence photograph) | inhibition at 2 ppm (Homo sapiens, 2 ppm Melasolv with 100 μM linoleic acid, 48 hours, based on the amount of sebum production induced by linoleic acid, Bodipy fluorescence (FIG. 1)) | sebum production, percentage compared to the untreated control group (100%) (100 μM linoleic acid alone (inducer), 48 hours, Bodipy fluorescence)
COc1cc(/C=C/C(=O)Oc2cc(C)ccc2C(C)C)cc(OC)c1OC [Melasolv, (5-methyl-2-propan-2-ylphenyl) (E)-3-(3,4,5-trimethoxyphenyl)prop-2-enoate] | decreased in proportion to the concentration | most inhibited | ~60.3% | –
CCCCC/C=C\C/C=C\CCCCCCCC(=O)O [linoleic acid, reference compound] | – | – | – | 142%
